Here are results for 14 compounds from ChEMBL document CHEMBL4819056 (Bioorg Med Chem Lett, 2021).

The structures appear in SMILES notation. Activity calls are given as the source filed them. The calls are words filed in the database; no cut-off is given here.

Assay [1] has as its target T1, Aldehyde dehydrogenase, mitochondrial (Homo sapiens, UniProt P05091).
T1 sequence (P05091 whole entry): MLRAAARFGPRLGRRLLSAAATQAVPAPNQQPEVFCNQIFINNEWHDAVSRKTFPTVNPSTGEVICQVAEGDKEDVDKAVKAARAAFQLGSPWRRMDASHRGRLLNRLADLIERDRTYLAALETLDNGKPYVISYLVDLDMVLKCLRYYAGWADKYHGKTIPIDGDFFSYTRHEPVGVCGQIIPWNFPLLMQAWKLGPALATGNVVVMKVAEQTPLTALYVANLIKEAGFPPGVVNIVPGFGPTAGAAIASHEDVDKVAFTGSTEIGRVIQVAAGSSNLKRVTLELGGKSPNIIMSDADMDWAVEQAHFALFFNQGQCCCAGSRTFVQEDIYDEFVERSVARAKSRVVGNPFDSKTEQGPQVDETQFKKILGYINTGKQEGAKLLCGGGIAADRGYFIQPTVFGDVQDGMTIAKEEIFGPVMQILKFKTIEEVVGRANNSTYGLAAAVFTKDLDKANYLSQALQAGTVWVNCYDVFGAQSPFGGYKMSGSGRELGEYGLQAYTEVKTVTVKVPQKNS
Description: Inhibition of ALDH2 (unknown origin). It is filed as single protein.

Assay [2] deals with T2, Aldehyde dehydrogenase 1A1 (Homo sapiens, UniProt P00352).
T2 sequence (P00352 whole entry): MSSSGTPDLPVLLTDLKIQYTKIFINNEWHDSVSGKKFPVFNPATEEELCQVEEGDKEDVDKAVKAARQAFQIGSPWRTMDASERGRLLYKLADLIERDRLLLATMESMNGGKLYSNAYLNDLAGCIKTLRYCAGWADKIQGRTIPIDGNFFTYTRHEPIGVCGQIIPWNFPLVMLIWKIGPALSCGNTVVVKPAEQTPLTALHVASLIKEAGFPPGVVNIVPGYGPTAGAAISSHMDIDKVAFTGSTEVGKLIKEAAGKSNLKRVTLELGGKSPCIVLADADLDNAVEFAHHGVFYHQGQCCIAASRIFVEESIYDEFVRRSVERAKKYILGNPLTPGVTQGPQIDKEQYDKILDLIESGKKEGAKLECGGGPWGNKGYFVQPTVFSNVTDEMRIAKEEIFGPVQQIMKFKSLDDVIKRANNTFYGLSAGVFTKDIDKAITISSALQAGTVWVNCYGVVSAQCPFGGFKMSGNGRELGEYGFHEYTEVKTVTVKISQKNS
The assay is described as follows: Inhibition of ALDH1A1 (unknown origin). It is filed as single protein.

For assay [3], the target named is T3, Aldehyde dehydrogenase 1A1 (Homo sapiens) (UniProt P00352).
T3 sequence (whole entry): T2 sequence (P00352 whole entry)
Description: Inhibition of ALDH1A1 (unknown origin) in presence of dithiothreitol.

Usually IC50 stands for the point on the concentration scale where inhibition reaches its midpoint. For the compound `CC(C)CN(CC(C)C)C(=S)SSC(=S)N(CC(C)C)CC(C)C`, the half-inhibitory concentration (IC50) entry was “Not Active” in assay [1] and over 100000 nM in assay [2] (read-out: IC50).
Take `S=C(SSC(=S)N(Cc1ccccc1)Cc1ccccc1)N(Cc1ccccc1)Cc1ccccc1` [BIS(DIBENZYLAMINETHIOCARBONYL)DISULFIDE]: the values for the IC50 entry in assay [1] and in assay [2] (read-out: IC50) were “Not Active” and over 100000 nM, respectively.
For `CC(=O)NC(CS)C(=O)O` (single isomer, unassigned), the IC50 result in assay [1] and in assay [2] was “Not Active” in each case.
`Cl.NCCS` [CYSTEAMINE HYDROCHLORIDE]: the IC50 result in assay [1] and in assay [2] was “Not Active” in each case.
Take `S=C(SSC(=S)N1CCCCC1)N1CCCCC1` [BIS(PIPERIDINYLTHIOCARBONYL)DISULFIDE]: the IC50 in assay [1] (read-out: IC50) was 1510 nM; in assay [2] (read-out: IC50), 50 nM.
For the compound `CCN(Cc1ccc(O)cc1)C(=S)SSC(=S)N(CC)Cc1ccc(O)cc1`, the inhibition result in assay [3] was “inactive”. The figures for the IC50 in assay [1] (read-out: IC50) and in assay [2] (read-out: IC50) were 10900 nM and 210 nM, respectively.
Take `CCN(Cc1ccccc1)C(=S)SSC(=S)N(CC)Cc1ccccc1`: the inhibition entry in assay [3] is “inactive”. Moreover, the values for the IC50 entry in assay [1] and in assay [2] (read-out: IC50) were “Not Active” and 270 nM, respectively.
Regarding `CCN(CC)C(=S)SSC(=S)N(CC)CC`, the inhibition entry in assay [3] was “inactive”.
With `CC(C)N(C(=S)SSC(=S)N(C)C)C(C)C`, the IC50 was over 100000 nM in assay [1] (read-out: IC50) and 2850 nM in assay [2] (read-out: IC50).
On the same counts, the results for `S=C(SSC(=S)N1CCOCC1)N1CCOCC1` are 1430 nM and 40 nM.
As to `CCN(Cc1ccc(C(=O)O)cc1)C(=S)SSC(=S)N(CC)Cc1ccc(C(=O)O)cc1`, the IC50 in assay [1] (read-out: IC50) stood at 99400 nM; in assay [2] (read-out: IC50), 2950 nM.
On the same counts, the results for `CCCCN(CCCC)C(=S)SSC(=S)N(CCCC)CCCC` are 72600 nM and 5610 nM.
Take `Cl.Cl.NCCSSCCN` [CYSTAMINE DIHYDROCHLORIDE]: the IC50 result in assay [1] was “Not Active”; in assay [2] (read-out: IC50), over 100000 nM.
Take `CCN(Cc1ccc(F)cc1)C(=S)SSC(=S)N(CC)Cc1ccc(F)cc1`: the inhibition entry in assay [3] is “inactive”. Further, in assay [1], the IC50 result is listed as “Not Active”.
